Source: ChEMBL document CHEMBL6153077, “Design, synthesis, and anti-liver fibrosis activity of novel non-steroidal vitamin D receptor agonists based on open-ring steroid scaffold” (Eur J Med Chem, 2025)
One block for each compound: values may come before it. Activity calls are given as the source filed them. No cut-off for these calls is given here.

Tests used:
[1] = target: T1, Vitamin D3 receptor (Homo sapiens) (UniProt P11473); test: Binding affinity to full-length VDR (unknown origin) at 1 uM by fluorescence polarization assay relative to control
T1 sequence (whole entry): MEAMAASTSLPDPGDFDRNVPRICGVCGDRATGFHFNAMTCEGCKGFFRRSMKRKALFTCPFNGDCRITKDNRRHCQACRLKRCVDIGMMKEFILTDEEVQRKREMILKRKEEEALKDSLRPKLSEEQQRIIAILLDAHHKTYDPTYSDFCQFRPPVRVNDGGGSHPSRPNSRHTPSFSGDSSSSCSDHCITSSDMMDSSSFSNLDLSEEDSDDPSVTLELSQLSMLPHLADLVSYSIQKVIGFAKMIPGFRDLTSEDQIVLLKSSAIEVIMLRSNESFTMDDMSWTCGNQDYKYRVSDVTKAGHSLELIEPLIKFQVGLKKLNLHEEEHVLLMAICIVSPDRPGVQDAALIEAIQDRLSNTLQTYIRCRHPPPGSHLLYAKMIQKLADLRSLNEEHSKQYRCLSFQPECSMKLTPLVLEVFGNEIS

LX-2 [2] = test: Inhibition of HSC activation in TGF-beta1-treated human LX2 cells assessed as decrease in ACTA2 mRNA level at 0.5 uM incubated for 24 hrs by qPCR analysis; format: functional, cell-based
LX-2 [3] = test: Inhibition of HSC activation in TGF-beta1-treated human LX2 cells assessed as decrease in COL1A1 mRNA level at 0.5 uM incubated for 24 hrs by qPCR analysis; format: functional, cell-based
LX-2 [4] = test: Inhibition of HSC activation in TGF-beta1-treated human LX2 cells assessed as decrease in collagen-I level at 0.5 uM incubated for 24 hrs by Western blot analysis; format: functional, cell-based
[5] = target: T1, Vitamin D3 receptor (Homo sapiens); test: Agonist activity at human VDR in HEK293 cells co-expressing 3-Luc/RXRalpha assessed as transcriptional activity at 0.5 uM by dual luciferase reporter assay; format: cell-based; conditions: filed as agonist
LX-2 [6] = test: Inhibition of HSC activation in TGF-beta1-treated human LX2 cells assessed as decrease in alpha-SMA level at 0.5 uM incubated for 24 hrs by Western blot analysis; format: functional, cell-based
[7] = target: T1, Vitamin D3 receptor (Homo sapiens); test: Agonist activity at VDR in human LX2 cells assessed as increase in CYP24A1 level at 0.5 uM by qRT-PCR analysis; format: cell-based; conditions: filed as agonist
LX-2 [8] = test: Inhibition of HSC activation in TGF-beta1-treated human LX2 cells harboring VDR siRNA assessed as decrease in alpha-SMA level at 0.5 uM incubated for 24 hrs by Western blot analysis; format: functional, cell-based
LX-2 [9] = test: Inhibition of HSC activation in TGF-beta1-treated human LX2 cells harboring VDR siRNA assessed as decrease in collagen-I level at 0.5 uM incubated for 24 hrs by Western blot analysis; format: functional, cell-based
Mus musculus [10] = test: Anti-fibrotic activity in CCl4-induced hepatic fibrosis C57BL/6 mouse model assessed as reduction in TBA level at 500 ug/kg, po administered daily for 2 weeks; format: functional, organism-based
Mus musculus [11] = test: Anti-fibrotic activity in CCl4-induced hepatic fibrosis C57BL/6 mouse model assessed as reduction in alpha-SMA level in liver at 500 ug/kg, po administered daily for 2 weeks by immunofluorescence based analysis; format: functional, organism-based
Mus musculus [12] = test: Anti-fibrotic activity in CCl4-induced hepatic fibrosis C57BL/6 mouse model assessed as prevention of serum calcium level elevation at 500 ug/kg, po administered daily for 2 weeks; format: functional, organism-based
Mus musculus [13] = test: Anti-fibrotic activity in CCl4-induced hepatic fibrosis C57BL/6 mouse model assessed as decrease in Timp-1 mRNA level in liver at 500 ug/kg, po administered daily for 2 weeks by qPCR analysis; format: functional, organism-based
Mus musculus [14] = test: Anti-fibrotic activity in CCl4-induced hepatic fibrosis C57BL/6 mouse model assessed as reduction in AST level at 500 ug/kg, po administered daily for 2 weeks; format: functional, organism-based
Mus musculus [15] = test: Anti-fibrotic activity in CCl4-induced hepatic fibrosis C57BL/6 mouse model assessed as reduction in collagen deposition in liver at 500 ug/kg, po administered daily for 2 weeks by H and E/Masson's trichrome staining based analysis; format: functional, organism-based
Mus musculus [16] = test: Anti-fibrotic activity in CCl4-induced hepatic fibrosis C57BL/6 mouse model assessed as decrease in Fn mRNA level in liver at 500 ug/kg, po administered daily for 2 weeks by qPCR analysis; format: functional, organism-based
Mus musculus [17] = test: Anti-fibrotic activity in CCl4-induced hepatic fibrosis C57BL/6 mouse model assessed as decrease in Ctgf mRNA level in liver at 500 ug/kg, po administered daily for 2 weeks by qPCR analysis; format: functional, organism-based
Mus musculus [18] = test: Anti-fibrotic activity in CCl4-induced hepatic fibrosis C57BL/6 mouse model assessed as reduction in hepatic lesion in liver at 500 ug/kg, po administered daily for 2 weeks by H and E/Masson's trichrome staining based analysis; format: functional, organism-based
Mus musculus [19] = test: Anti-fibrotic activity in CCl4-induced hepatic fibrosis C57BL/6 mouse model assessed as increase in IL-10 level in liver at 500 ug/kg, po administered daily for 2 weeks by ELISA; format: functional, organism-based
Mus musculus [20] = test: Anti-fibrotic activity in CCl4-induced hepatic fibrosis C57BL/6 mouse model assessed as reduction in ALT level at 500 ug/kg, po administered daily for 2 weeks; format: functional, organism-based
Mus musculus [21] = test: Anti-fibrotic activity in CCl4-induced hepatic fibrosis C57BL/6 mouse model assessed as reduction in IL-1beta level in liver at 500 ug/kg, po administered daily for 2 weeks by ELISA; format: functional, organism-based

Activity ([1]; filed as agonist): 60% | Activity [5]: Active | Activity [7]: Active
Structure (SMILES): CCC(O)(CC)c1ccc(-c2ccc(COC(=O)C3=C[C@@H](O)[C@@H](O)[C@H](O)C3)s2)c(C)c1
inhibition (LX-2 [2]): Active | inhibition (LX-2 [3]): Active | inhibition (LX-2 [4]): Active | inhibition (LX-2 [6]): Active

Activity ([1]; filed as agonist): 49%
Structure (SMILES): CCC(O)(CC)CCCCOc1ccc(C#CC2=C[C@@H](O)[C@@H](O)[C@H](O)C2)c2c1CCCC2

Activity ([1]; filed as agonist): 43%
Structure (SMILES): CC(C)(O)CCCOc1ccc(/C=C/C2=C[C@@H](O)[C@@H](O)[C@H](O)C2)c2c1CCCC2

Activity [1]: inactive
Structure (SMILES): CCC(O)(CC)CCCOc1ccc(C#CC2=C[C@@H](O)[C@@H](O)[C@H](O)C2)c2c1CCCC2

Activity ([1]; filed as agonist): 77%
Structure (SMILES): CCCC(OC(=O)C1=C[C@@H](O)[C@@H](O)[C@H](O)C1)c1cccc(OCCCC(C)(C)O)c1 (stereo partly drawn)
inhibition (LX-2 [2]): Active | inhibition (LX-2 [3]): Active | inhibition (LX-2 [4]): Active | inhibition (LX-2 [6]): Active

Activity ([1]; filed as agonist): 84%
Structure (SMILES): CCC(OC(=O)C1=C[C@@H](O)[C@@H](O)[C@H](O)C1)c1cccc(OCCCC(C)(C)O)c1 (stereo partly drawn)
inhibition (LX-2 [2]): Active | inhibition (LX-2 [3]): Active | inhibition (LX-2 [4]): Active | inhibition (LX-2 [6]): Active

Activity ([1]; filed as agonist): 84% | Activity [5]: Active | Activity [7]: Active
Structure (SMILES): CCC(OC(=O)C1=C[C@@H](O)[C@@H](O)[C@H](O)C1)c1cccc(OCCCC(O)(CC)CC)c1 (stereo partly drawn)
inhibition (LX-2 [2]): Active | inhibition (LX-2 [3]): Active | Activity (Mus musculus [10]): Active | inhibition (LX-2 [4]): Active | Activity (Mus musculus [11]): Active | inhibition (LX-2 [8]): inactive | Activity (Mus musculus [12]): Active | Activity (Mus musculus [13]): Active | inhibition (LX-2 [9]): inactive | Activity (Mus musculus [14]): Active | inhibition (LX-2 [6]): Active | Activity (Mus musculus [15]): Active | Activity (Mus musculus [16]): Active | Activity (Mus musculus [17]): Active | Activity (Mus musculus [18]): Active | Activity (Mus musculus [19]): Active | Activity (Mus musculus [20]): Active | Activity (Mus musculus [21]): Active

Activity ([1]; filed as agonist): 51%
Structure (SMILES): C=CCC(O)(CC=C)CCCOc1cccc2c1CCCC2OC(=O)C1=C[C@@H](O)[C@@H](O)[C@H](O)C1 (stereo partly drawn)

Activity ([1]; filed as agonist): 49%
Structure (SMILES): CC(C)(O)CCCOc1cccc(COC(=O)C2=C[C@@H](O)[C@@H](O)[C@H](O)C2)c1

Activity ([1]; filed as agonist): 71%
Structure (SMILES): Cc1cc(C(C)(C)O)ccc1-c1ccc(COC(=O)C2=C[C@@H](O)[C@@H](O)[C@H](O)C2)s1

Second part, the compound before the results:

Structure (SMILES): CC(C)c1ccc(C(=O)COc2ccc(/C=C/C3=C[C@@H](O)[C@@H](O)[C@H](O)C3)c3c2CCCC3)cc1
Activity ([1]; filed as agonist): 76%

Structure (SMILES): CC(C)(O)CCCCOc1ccc(/C=C/C2=C[C@@H](O)[C@@H](O)[C@H](O)C2)c2c1CCCC2
Activity [1]: 21%

Structure (SMILES): CCN(CC)C(=O)COc1ccc(/C=C/C2=C[C@@H](O)[C@@H](O)[C@H](O)C2)c2c1CCCC2
Activity ([1]; filed as agonist): 56%

Structure (SMILES): CCn1cc(C(CC)(CC)c2ccc(OCC(O)CO)c(C)c2)cc1C(=O)NCC(C)(C)O (stereo not drawn)
Activity ([1]; filed as agonist): 57% | inhibition (LX-2 [8]): inactive | inhibition (LX-2 [9]): inactive

Structure (SMILES): CC(C)(C)c1ccc(C(=O)COc2ccc(/C=C/C3=C[C@@H](O)[C@@H](O)[C@H](O)C3)c3c2CCCC3)cc1
Activity ([1]; filed as agonist): 88%

Structure (SMILES): C=C1/C(=C\C=C2/CCC[C@]3(C)[C@@H]([C@H](C)/C=C/[C@@H](O)C4CC4)CC[C@@H]23)C[C@@H](O)C[C@@H]1O
Activity ([1]; filed as agonist): 100% | inhibition (LX-2 [8]): inactive | inhibition (LX-2 [9]): inactive

Structure (SMILES): CC(C)(O)CCCCOc1ccc(C#CC2=C[C@@H](O)[C@@H](O)[C@H](O)C2)c2c1CCCC2
Activity ([1]; filed as agonist): 50%

Structure (SMILES): CC(C)(C)C(O)COc1ccc(/C=C/C2=C[C@@H](O)[C@@H](O)[C@H](O)C2)c2c1CCCC2 (stereo partly drawn)
Activity ([1]; filed as agonist): 50%

Structure (SMILES): CC(C)(O)CCOc1ccc(C#CC2=C[C@@H](O)[C@@H](O)[C@H](O)C2)c2c1CCCC2
Activity ([1]; filed as agonist): 56%

Structure (SMILES): CC(C)(O)CCCOc1ccc(C#CC2=C[C@@H](O)[C@@H](O)[C@H](O)C2)c2c1CCCC2
Activity [1]: 15%
